Activity calls are given as the source filed them. The calls are words filed in the database; no cut-off is given here.
Key:
[1] = test system: L1210; experiment: Antitumor activity against mouse L1210 cells allografted in mouse; assay type: functional, cell-based
[2] = test system: L1210; experiment: Cytotoxicity against mouse L1210 cells assessed as growth inhibition at 10^-5 M after 40 hrs relative to control; assay type: functional; settings: L1210, 40 h, read-out: GI
[3] = test system: L1210; experiment: Cytotoxicity against mouse L1210 cells assessed as growth inhibition at 10^-4 M after 40 hrs relative to control; assay type: functional; settings: L1210, 40 h, read-out: GI
[4] = test system: L1210; experiment: Cytotoxicity against mouse L1210 cells assessed as growth inhibition at 10^-6 M after 40 hrs relative to control; assay type: functional; settings: L1210, 40 h, read-out: GI
[5] = test system: L1210; experiment: Cytotoxicity against mouse L1210 cells assessed as growth inhibition after 40 hrs; assay type: functional
[6] = species on record: Mus musculus; experiment: Toxicity in mouse allografted with mouse P388 cells; assay type: organism-based
[7] = test system: P388; experiment: Antitumor activity against mouse P388 cells allografted in mouse assessed as tumor growth inhibition at 25 mg/kg relative to control; assay type: functional

Compound	Activity [1]	inhibition of growth at 10 µM [2]	inhibition of growth at 100 µM [3]	inhibition of growth at 1 µM [4]	ID50 [5]	IC50 ([5]; Mus musculus, L1210, 40 h, read-out: ID50 (the source's name))	Activity [6]	T/C [7]
CC(=O)OCC1=C(COC(C)=O)[C@@H]2O[C@H]1[C@H](OC(C)=O)[C@@H]2OC(C)=O	inactive	19%	34%	1%	>1 ×10⁻⁴ M	–	–	–
CCOC(=O)N1[C@@H]2O[C@@H](C(COC(C)=O)=C2COC(C)=O)N1C(=O)OCC	inactive	41%	78%	13%	3 ×10⁻⁵ M	–	–	–
COC(=O)C1=C(C(=O)OC)[C@H]2O[C@@H]1C(COC(C)=O)=C2COC(C)=O	inactive	93%	93%	93%	–	< 1 µM	–	–
CNC(=O)OCC1=C(COC(=O)NC)[C@@H]2O[C@H]1C(C(=O)OC)=C2C(=O)OC	–	–	–	–	–	–	Toxic	–
CCCCNC(=O)OCC1=C(COC(=O)NCCCC)[C@@H]2O[C@H]1C(C(=O)OC)=C2C(=O)OC	–	–	–	–	–	–	–	123%
CC(=O)OCC1=C(COC(C)=O)[C@@H]2O[C@H]1[C@H](O)[C@@H]2O	inactive	3%	41%	–	>1 ×10⁻⁴ M	–	–	–

Reference: ChEMBL document CHEMBL3244299, “Allylic esters as potential antitumor agents. Derivatives and analogues of 2,3-bis(hydroxymethyl)-7-oxabicyclo[2.2.1]hept-2-ene” (J Med Chem, 1979)
